Source: patent publication US4727090A, “Process for preparing and therapeutical applications of the 2,4,6-triiodophenol” (Bislak, S.A., priority 1983, dated 1988)
Where two headings read alike, the source gives them in different places.

What was measured:
vascular surface = assay: Vascular caliber by echo-Doppler in cardiovascular patients (vasodilatory action); assay type: in vivo; conditions: 30 mg/day intramuscular
Text: (§1) The technology used to show the hemodynamic changes was of the non-invasivetype, as in this way experiments can be repeated and are completely innoxious for the patient. Of all the non-invasive methods of diagnosis we selected the most reliable of actual conditions, which is the method of ultrasounds (echo and Doppler's effects). The bidimensional echocardiography in real time, combined with pulsatile Doppler and the bidimensional vascular echography combined with pulsatile Doppler hemodynamic, are actually the two most reliable non-invasive techniques for the study of the anatomic changes and macroscopic hemodynamics with regard to the cardiovascular apparatus. That's why we used for the study of the clinical effects of the 2,4,6-triiodophenol an echo-Doppler trade mark ATL (Mark V), being the transmission frequency of 3 MHz, as well as a continuous Doppler trade mark SONICAID of 4 and 8 MHz.
(§2) Patients were divided in four statistically acceptable groups (50 in each group), comparing the results obtained with this medicament before, during and after the treatment.
(§3) Methodologically there are practiced echographical cuts in real time of the heart, big vases, supra-aortic trunks, abdominal aorta, portal and caval systems and iliac and femoral arteries, obtaining fluxmetric samples Doppler in all the mentioned cardiac cavities and blood vessels to study the sense of the flow, outflow (stream) or volume of flow and the hemodynamic features of the sanguineous flow.
(§4) Hereunder we expose the clinical results obtained after the administration during three months of the 2,4,6-triiodophenol in 200 cardiovascular patients.
(§5) Sick persons were divided in 4 groups; (1) 50 patients with cerebral vascular insufficiency, (2) 50 patients with coronary insufficiency, (3) 50 patients with hepatic insufficiency and (4) 50 patients with peripheral vascular insufficiency of the lower extremities. All these persons received an intramuscular administration, a dosage of 30 mg/day of 2,4,6-triiodophenol, carrying out controls at the first, second and third month of all angiohemodynamic parameters, supposing a total of 600 controls (150 per each group after the three months).

pressure = assay: Systemic arterial and portal pressure in cardiovascular patients (hypotensor action); assay type: in vivo; conditions: 30 mg/day intramuscular
Text: as §1, §2, §3, §4, §5

[1] = system: acetic acid induced pullings; assay: Writhing syndrome test (acetic acid); assay type: in vivo, mice; conditions: 10 mg/kg oral; for inhibition at 10 mg/kg: Mus musculus, po, read-out: % INHIB. (pullings)
Procedure: Irritant substance: acetic acid at 0.5% injected via intraperitoneal.
Foundation of the method consists in provoking a dolorous syndrome by pulling and torsion of the stomach and the hind legs of the animals.
These pullings or stretchings are calculated during a certain time, using it as the measure of the provoked ache.
Mice of about 22 g by weight were used, animals were left under abstinence during 24 hours before carrying out the test.
Mice were previously selected as to each individual response to the dolorous stimulus provoked by an intraperitoneal injection of 0.2 ml of an acetic acid aqueous solution at the 0.5%. Valid animals for realizing the test are those which respond within a margin of 15-35 pullings in about 5 to 15 minutes after the injection. The remaining animals are not useful.
Medication is realized via oral with the help of an esophageal cannula.
White lot: Administration of 0.1 ml of CMC 1% for each 10 g of corporal weight.
2,4,6-triiodophenol lot: Administration of 10 mg/kg of the product, suspended in CMC of 1%.
Aspirin-Lysin lot (Solusprin): Administration of 500 mg/kg aspirin, dissolved at 1%.
After medication, one has to wait 20 minutes for injecting 0.2 ml acetic acid of 0.5% via intraperitoneal, calculating the number of pullings during 5 minutes. […]
The test was carried out in 9 mice in each lot.

[2] = Tolerability after three months administration in 200 cardiovascular patients; assay type: in vivo
Procedure: as §4, §5

[3] = Effects by parenteral administration compared with classical antirheumatics; assay type: in vivo; conditions: 1 mg/kg
fat in the blood = assay: Fat in the blood in cardiovascular patients (hypocholesterinemic action); assay type: in vivo; conditions: 3rd month, 30 mg/day intramuscular
Procedure: as §4, §5

cardiac contractility = assay: Cardiac contractility in cardiovascular patients (inotropic effect); assay type: in vivo; conditions: 30 mg/day intramuscular
Text: as §1, §2, §3, §4, §5

Carrageenin leg oedema = Carrageenin leg oedema test; assay type: in vivo, white rats; conditions: for inhibition at 5 mg/kg: Rattus norvegicus, 5 mg/kg oral
Procedure: (A) The antiinflammatory action is shown in white rats, of a weight of about 200-225 g, having provoked in these animals the leg oedema by means of an injection in the sole of the foot of 0.1 ml of a 1% Carrageenin solution.
One control group of ten animals, another the same medicated with indomethacin via oral at 30 mg/kg, in suspension in a carboxymethylcellulose solution, another group of ten rats, medicated with triiodophenol in oral solution at 5 mg/kg, another group medicated with triioodophenol at 1 mg/kg, injected via intramuscular and another group medicated with triiodophenol at 0.5 mg/kg via intramuscular. All medications are administered simultaneously to the formation of Edema.
The volume of the same is measured at 0 hours, 3 hours, 4 hours, 5 hours and 6 hours with a mercury Plestimograph.

Oc1c(I)cc(I)cc1I [2,4,6-triiodophenol]
Vascular caliber, abdominal aorta, variation (Δ %) (vascular surface; 1st month): +6% | Vascular caliber, caval iliac artery, variation (Δ %) (vascular surface; 1st month): +8% | Vascular caliber, portal carotid aorta, variation (Δ %) (vascular surface; 1st month): +11% | Vascular caliber, portal system, variation (Δ %) (vascular surface; 1st month): -13% | Vascular caliber, postcaval system, variation (Δ %) (vascular surface; 1st month): -9% | Vascular caliber, thoracic aorta, variation (Δ %) (vascular surface; 1st month): +3% | Vascular caliber, abdominal aorta, variation (Δ %) (vascular surface; 2nd month): +11% | Vascular caliber, caval iliac artery, variation (Δ %) (vascular surface; 2nd month): +12% | Vascular caliber, portal carotid aorta, variation (Δ %) (vascular surface; 2nd month): +12% | Vascular caliber, portal system, variation (Δ %) (vascular surface; 2nd month): -23% | Vascular caliber, postcaval system, variation (Δ %) (vascular surface; 2nd month): -14% | Vascular caliber, thoracic aorta, variation (Δ %) (vascular surface; 2nd month): +7% | Vascular caliber, abdominal aorta, variation (Δ %) (vascular surface; 3rd month): +13% | Vascular caliber, caval iliac artery, variation (Δ %) (vascular surface; 3rd month): +15% | Vascular caliber, portal carotid aorta, variation (Δ %) (vascular surface; 3rd month): +13% | Vascular caliber, portal system, variation (Δ %) (vascular surface; 3rd month): -26% | Vascular caliber, postcaval system, variation (Δ %) (vascular surface; 3rd month): -13% | Vascular caliber, thoracic aorta, variation (Δ %) (vascular surface; 3rd month): +9% | Portal pressure, variation (Δ %) (pressure; 1st month): -8% | Systemic arterial pressure, variation (Δ %) (pressure; 1st month): -3% | Portal pressure, variation (Δ %) (pressure; 2nd month): -11% | Systemic arterial pressure, variation (Δ %) (pressure; 2nd month): -5% | Portal pressure, variation (Δ %) (pressure; 3rd month): -13% | Systemic arterial pressure, variation (Δ %) (pressure; 3rd month): -6% | Total No. pullings ([1]; 20'): 14 | Total No. pullings ([1]; 30'): 9 | Total No. pullings ([1]; 100'): 9 | inhibition at 10 mg/kg ([1]; 20'): 88.4% | inhibition at 10 mg/kg ([1]; 30'): 83.9% | inhibition at 10 mg/kg ([1]; 100'): 86.1% | Thyroid function ([2]; iodine concentration of the product): does not alter the thyroid function | Toxic effect or secondary effects of clinical importance ([2]; three months administration, 30 mg/day intramuscular): does not produce any toxic effect or secondary effects of clinical importance in none of the patients | Effects compared with aspirin and indomethacin at therapeutic dosages [3]: comparable and even higher | Cholesterol, variation (fat in the blood): -15% | Triglycerides, variation (fat in the blood): -12% | Ejection fraction, variation (Δ %) (cardiac contractility; 1st month): -9,1% | Ejection volume, variation (Δ %) (cardiac contractility; 1st month): -9% | Telediastolic volume, variation (Δ %) (cardiac contractility; 1st month): -3% | Telesystolic volume, variation (Δ %) (cardiac contractility; 1st month): +8% | Ejection fraction, variation (Δ %) (cardiac contractility; 2nd month): -8,8% | Ejection volume, variation (Δ %) (cardiac contractility; 2nd month): -8,4% | Telediastolic volume, variation (Δ %) (cardiac contractility; 2nd month): -5% | Telesystolic volume, variation (Δ %) (cardiac contractility; 2nd month): +11% | Ejection fraction, variation (Δ %) (cardiac contractility; 3rd month): -8,6% | Ejection volume, variation (Δ %) (cardiac contractility; 3rd month): -8% | Telediastolic volume, variation (Δ %) (cardiac contractility; 3rd month): -6% | Telesystolic volume, variation (Δ %) (cardiac contractility; 3rd month): +13% | % inhibition (oedema) (Carrageenin leg oedema; 0,5 mg/kg inj. (intramuscular), 3 hours): 20% | % inhibition (oedema) (Carrageenin leg oedema; 0,5 mg/kg inj. (intramuscular), 4 hours): 42% | % inhibition (oedema) (Carrageenin leg oedema; 0,5 mg/kg inj. (intramuscular), 5 hours): 49% | % inhibition (oedema) (Carrageenin leg oedema; 0,5 mg/kg inj. (intramuscular), 6 hours): 60% | % inhibition (oedema) (Carrageenin leg oedema; 1 mg/kg inj. (intramuscular), 4 hours): 66% | % inhibition (oedema) (Carrageenin leg oedema; 1 mg/kg inj. (intramuscular), 5 hours): 75% | % inhibition (oedema) (Carrageenin leg oedema; 1 mg/kg inj. (intramuscular), 6 hours): 82% | inhibition at 5 mg/kg (Carrageenin leg oedema; 3 hours): 43% | inhibition at 5 mg/kg (Carrageenin leg oedema; 4 hours): 50% | inhibition at 5 mg/kg (Carrageenin leg oedema; 5 hours): 57% | inhibition at 5 mg/kg (Carrageenin leg oedema; 6 hours): 65%
